The values that follow come from BindingDB's records for doi:10.1016/j.bmcl.2010.08.063 (Merck Research Laboratories, 2010).

The nature of the assay: Positive modulation of GluR1.
In general, EC50 refers to the midpoint of the concentration-response curve. For the compound `O=C(Cn1nc(C(F)(F)F)c2c1CCCC2)Nc1sc2c(c1C(=O)N[C@@H]1CCNC1)CCCC2`, a half-maximal effect (EC50) was put at 251 nM.
To `O=C(Cn1nc(C(F)(F)F)c2c1CCCC2)Nc1sc2c(c1CO)CCCC2` belongs 251 nM; to `NCc1cn(CC(=O)Nc2sc3c(c2C(N)=O)CCCC3)nc1C(F)(F)F`, 794 nM.
To `CNCc1cn(CC(=O)Nc2sc3c(c2C(N)=O)CCCC3)nc1C(F)(F)F` belongs 126 nM; to `CCNCc1cn(CC(=O)Nc2sc3c(c2C(N)=O)CCCC3)nc1C(F)(F)F`, 794 nM.
As for `CN(C)Cc1cn(CC(=O)Nc2sc3c(c2C(N)=O)CCCC3)nc1C(F)(F)F`, the figure is 501 nM.
With `CC(C)NCc1cn(CC(=O)Nc2sc3c(c2C(N)=O)CCCC3)nc1C(F)(F)F`, it took 3160 nM to reach a half-maximal effect (EC50).
To `COCCNCc1cn(CC(=O)Nc2sc3c(c2C(N)=O)CCCC3)nc1C(F)(F)F` belongs 1580 nM; to `CCN(CC)Cc1cn(CC(=O)Nc2sc3c(c2C(N)=O)CCCC3)nc1C(F)(F)F`, 631 nM; to `NC(=O)c1c(NC(=O)Cn2cc(CNC3CC3)c(C(F)(F)F)n2)sc2c1CCCC2`, 631 nM.
To `NC(=O)c1c(NC(=O)Cn2cc(CN3CCC3)c(C(F)(F)F)n2)sc2c1CCCC2` belongs 1000 nM.
For the compound `CNCc1cn(CC(=O)Nc2sc3c(c2C(N)=O)CCCC3)nc1C(C)(C)C`, the EC50 came out at 316 nM.
To `CN(C)Cc1cn(CC(=O)Nc2sc3c(c2C(N)=O)CCCC3)nc1C(C)(C)C` belongs 316 nM; to `CC(C)(C)c1nn(CC(=O)Nc2sc3c(c2C(N)=O)CCCC3)cc1CNC1CC1`, 1580 nM; to `CCNCc1cn(CC(=O)Nc2sc3c(c2C(N)=O)CCCC3)nc1C(C)(C)C`, 794 nM.
The compound `CC(C)NCc1cn(CC(=O)Nc2sc3c(c2C(N)=O)CCCC3)nc1C(C)(C)C` returned an EC50 of 1580 nM.
To `CNCc1cn(CCC(=O)Nc2sc3c(c2C(N)=O)CCCC3)nc1C(F)(F)F` belongs 1580 nM.
`CCNCc1cn(CCC(=O)Nc2sc3c(c2C(N)=O)CCCC3)nc1C(F)(F)F` came in with an EC50 of 2510 nM.
`CCN(CC)Cc1cn(CCC(=O)Nc2sc3c(c2C(N)=O)CCCC3)nc1C(F)(F)F` gave an EC50 of 2000 nM.
Compound `NC(=O)c1c(NC(=O)Cn2nc(C(F)(F)F)c3c2CCNC3)sc2c1CCCC2` yielded an EC50 of 1000 nM.
For `CNCc1cn(CC(=O)Nc2sc3c(c2C(=O)NC)CCCC3)nc1C(F)(F)F`, the EC50 turned out to be 1580 nM.
